The results in this text go back to US9234186B2, “Star-worm luciferase” (OLYMPUS CORPORATION, priority 2011, dated 2016).

Like-named read-outs stand apart in the source and are kept apart here.

Assay [1] concerns Diplocladon sp. 1 star-worm luciferase, wild type, SEQ ID NO: 1. The assay is described as follows: Km determination for star-worm luciferase (luminescence kinetics). In kind it is biochemical. To be noted: 0.1 M Tris-HCl pH 8.0, 8 mM MgSO4.
Experimental: The measurements were carried out ten times for each sample, and the average of absorbance was used for the calculation.
A solution of 0.1 M Tris-HCl (pH 8.0) containing each purified luciferase, 4 mM of ATP, and 8 mM of MgSO4 was connected to the standard pump of a luminometer, and measurement was carried out at the same time of adding 50 μl of the solution to the well. A Luminescensor (ATTO) was used for the measurement. Measurement was repeated three times for each luciferin concentration.
The peak intensity of the obtained photon count value was plotted with respect to luciferin concentration S, defining the initial rate as V. The plots were subjected to curve fitting of Michaelis Menten type, thereby giving Km values. The curve fitting was performed by a nonlinear least-squares method, and search of parameter was performed by a Newton method.
Measurement of Km Value with Respect to ATP
Under various ATP concentrations, the luminous intensity of the obtained luciferase was measured. Based on the results, Km values was determined with respect to ATP.
Various eight types of ATP solutions were prepared by adding ATP to 0.1 M Tris-HCl (pH 8.0). These solutions contain ATP at final concentration of 10, 20, 40, 80, 160, 320, 480, or 640 μM. These ATP solutions were each injected into a 96-well microplate at a volume of 50 μl. […]
The subject of assay [2] is CBR luciferase derived from click beetle. The assay is described as follows: Km determination for known luciferase CBR (luminescence kinetics). To be noted: 0.1 M Tris-HCl pH 8.0; enzyme solution with 1 mM D-luciferin, 8 mM MgSO4; read-out: Km for ATP. In kind it is biochemical.
Another assay relates to HeLa cell. The assay is described as follows: Luminous intensity expressed in HeLa cell, star-worm luciferase vs P. pyralis luciferase (Example 3). The assay is classed as cell-based. The note with it: 2 mM D-luciferin, 25° C., 90 minutes, normalised to sea pansy luciferase internal control, codon-optimized gene with Kozak sequence. The method, then:
The luminous intensities when expressed in a HeLa cell were compared between a star-worm luciferase and P. pyralis luciferase.
Regarding a star-worm luciferase, Kozak sequence was added to a nucleic acid optimized for expression in a mammalian cell and then inserted into between SgfI site and PmeI site of a multicloning site of pF9A CMV hRLuc neo Flexi vector (Promega). According to addition of Kozak sequence, an amino acid encoded by the codon immediately after initiation codon, proline, was changed to alanine. […] For the purpose of comparison, Kozak sequence was added to a known P. pyralis nucleic acid containing an optimized gene for expression in a mammalian cell, and then inserted into apF9A CMV hRLuc neo Flexi vector in a similar manner.
Each of the two types of plasmids obtained by the aforementioned manner was introduced into HeLa cells by means of lipofection method, and 24 hours later the cells were washed with PBS. […] According to the figure, the star-worm luciferase induced luminescence having 1.5 times the luminous intensity in a HeLa cell of that induced by P. Pyralis luciferase.

Regarding `Nc1ncnc2c1ncn2[C@@H]1O[C@H](COP(=O)(O)OP(=O)(O)OP(=O)(O)O)[C@@H](O)[C@H]1O` [ATP, Adenosine triphosphate], the Km (in general, the concentration of substrate that gives half-maximal velocity) turned out to be 110 µM in assay [1] (enzyme solution with 1 mM D-luciferin, read-out: Km for ATP) and 47 µM in assay [2]. For the molecule `O=C(O)[C@H]1CSC(c2nc3ccc(O)cc3s2)=N1` [D-luciferin], the Michaelis-Menten constant (Km) in assay [1] (read-out: Km for D-luciferin, enzyme solution with 4 mM ATP) is 38.9 µM.

B1: star-worm luciferase: Novel luciferase cloned from star-worm Diplocladon sp. 1, amino acid sequence SEQ ID NO: 1 (protein, listed as Diplocladon sp.)
chain: MPNEIVLHGAKPRDPLDLGTAGSQLFRSLTQFSYLREALVDAHTEQVVSYADILENSCRLAICFEKYGLRQNSVIAVCSENSAIFFYPVIAALYMGIITATVNDNYTERELFDTLNISKPELVFCSKKAIKNLTQLKNHIDFIKKLVVLDSDEDIGEVESLANFMKRYSESVIDVRNFKPRDFDAKEQVALIMSSSGTTGLPKGVVLTHRNLSVRFVHCKDPLFGTRTVPSTSILSIVPFHHAFGMFTTLSYFIVGLRVILLKRFEEEFFLSTIEKYRIPTIVLAPPVMVFLAKSPLVDQYDVSSIREVATGGAPVGIEVAEAVAKRLKINGILQGYGLTETCCAVLITPHDHVKTGSTGKVAPYVQAKVVDLSTGKSLGPNKRGELCFKSEIIMKGYFNNIKATEEAIDKEGWLHSGDVGYYDEDGHFYVVDRLKELIKYKGYQVAPAELEWLLLQHPAIKDAGVTGVPDEAAGELPGACIVLEEGHSLTEQEVIEYVAERVSPTKRIRGGVVFVDDIPKGATGKLVRSELRRMLSQKKSKL
Take B1: the “luminous intensity relative to that induced by P. pyralis firefly luciferase” value in the assay with HeLa cell is on record as 1.5 times.
